These results are taken from patent publication US11925629B2, “Heterocyclic inhibitors of ERK1 and ERK2 and their use in the treatment of cancer” (Asana Biosciences, LLC, priority 2015, dated 2024).

Common to all, as to type: cell-based, human
The subject of assay [1] is HT-29 (colorectal carcinoma, B-RafV600E) cells. The experiment in a line: Cell proliferation (Alamar Blue) assay, HT-29. The following applies: Homo sapiens, HT-29, HT29 cells. In a few lines:
(§1)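 Cells seeded at 5000/well and allowed 16-24 h at 37° C./5% CO2, then exposed to 3-fold serial dilutions (typically 0.0005 to 10 uM) for 72 h. Viability read by Alamar Blue (1×, 1-3 h) fluorescence at 540/590 nm; IC50 from variable-slope sigmoidal fit.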
In general terms: The colour change of resazurin is a common sign of viable cells or microbes.

The subject of assay [2] is HCT116 (colorectal carcinoma, K Ras G13D) cells. The experiment in a line: Cell proliferation (Alamar Blue) assay, HCT116. The following applies: Homo sapiens, HCT-116, HCT116 cells. In a few lines:
as §1

In assay [3] the test system is phosphorylation of RSK1(S380) (the downstream target of ERK1/2). In words: Phospho-RSK1(S380) ELISA assay in HT-29 cells. The following applies: Homo sapiens, HT-29, HT29 cells, read-out: Mechanistic Cell Assay RSK1 Phos HT29 IC50. How it is done:
Phospho-RSK1(S380) ELISA Assay
HT-29 cells (colorectal carcinoma, B-RafV600E); obtained from ATCC, USA) were seeded (60,000 cells/well) in a 96-well plate and incubated at 37° C./5% CO2 overnight and then treated with desired compound dilutions for 2 h. Medium was removed and cells were rinsed once with ice-cold 1×PBS, then 0.070 mL ice-cold 1× cell lysis buffer containing 1 mM PMSF was added to each well and the plate was incubated on a shaker for 2 h and 30 min at 4° C. The plate was then centrifuged for 20 min (×4000 rpm) at 4° C. and the supernatant was transferred to a new plate. Cell lysates were diluted with sample diluent at a ratio of 1:1. The ELISA was then carried out following the manufacturer's protocol (PathScan® phospho-RSK1(Ser380) Sandwich ELISA Kit, Cell Signaling Technologies). The plate was read at 450 nm within 30 min after adding STOP solution. The IC50 values were subsequently determined using a sigmoidal dose-response curve (variable slope) in GraphPad Prism® 5 software.

Like-named read-outs stand apart in the source and are kept apart here.

The term IC50 denotes the point on the concentration scale where inhibition reaches its midpoint. Turning to `Cc1cnc(N[C@@H]2CCOC2)nc1-n1ccc(C(=O)N[C@H](CO)c2cccc(Cl)c2)c1` [Example 162, N-((S)-1-(3-chlorophenyl)-2-hydroxy-ethyl)-1-(5-methyl-2-(((R)-tetra-hydrofuran-3-yl)amino)pyrimidin-4-yl)-1H-pyrrole-3-carboxamide], the IC50 is 100 to 250 nM in assay [1], 500 to 2500 nM in assay [2] and not above 100 nM in assay [3] (phospho-RSK1(S380)).

In the case of `Cc1cnc(NC2CCOCC2)nc1-n1cnc(C(=O)N[C@H](CO)c2cccc(Cl)c2)c1` [Compound 211, (S)—N-(1-(3-chlorophenyl)-2-hydroxyethyl)-1-(5-methyl-2-((tetrahydro-2H-pyran-4-yl)amino)pyrimidin-4-yl)-1H-imidazole-4-carboxamide], the IC50 in assay [1] is not above 100 nM; in assay [2], 100 to 250 nM; in assay [3] (phospho-RSK1(S380)), not above 100 nM.

Turning to `Cc1cnc(N[C@H]2CCOC2)nc1-n1cnc(C(=O)NCc2cccc(Cl)c2C)c1` [Example 331, (S)-N-(3-chloro-2-methylbenzyl)-1-(5-methyl-2-((tetrahydrofuran-3-yl)amino)pyrimidin-4-yl)-1H-imidazole-4-carboxamide], the results for the concentration for half-maximal inhibition (IC50) in assay [1], in assay [2] and in assay [3] were 500 to 2500 nM, 500 to 2500 nM and not above 100 nM, respectively.

Take `NCC(NC(=O)c1ccn(-c2ccnc(Nc3ccc(F)cc3)c2)c1)c1ccccc1` (centres unmarked) [Example 206, N-(2-amino-1-phenylethyl)-1-(2-((4-fluorophenyl)amino)pyridin-4-yl)-1H-pyrrole-3-carboxamide]: the IC50 in assay [1] was 500 to 2500 nM; in assay [2], more than 2500 nM; in assay [3] (phospho-RSK1(S380)), 500 to 2500 nM.

For the compound `Cc1cnc(NC2CC(F)(F)C2)nc1-n1cnc(C(=O)NCc2cccc(Cl)c2CO)c1` [Example 273, N-(3-chloro-2-(hydroxymethyl)benzyl)-1-(2-((3,3-difluorocyclobutyl)amino)-5-methylpyrimidin-4-yl)-1H-imidazole-4-carboxamide], the IC50 in assay [2] is not above 100 nM; in assay [3] (phospho-RSK1(S380)), 100 to 250 nM.

Take `Cc1cnc(Nc2ccc3c(c2)OCO3)nc1-n1cnc(C(=O)NC(CN)c2cc(F)cc(Cl)c2)c1` (centres unmarked) [Example 269, N-(2-amino-1-(3-chloro-5-fluorophenyl)ethyl)-1-(2-(benzo[d][1,3]dioxol-5-ylamino)-5-methylpyrimidin-4-yl)-1H-imidazole-4-carboxamide]: the IC50 in assay [2] and in assay [3] (phospho-RSK1(S380)) was not above 100 nM throughout.

As to `Cc1cnc(N[C@H]2CCOC2)nc1-n1cnc(C(=O)NCc2ccc(Cl)c(Cl)c2)c1` [Example 314, (S)-N-(3,4-dichlorobenzyl)-1-(5-methyl-2-((tetrahydrofuran-3-yl)amino)pyrimidin-4-yl)-1H-imidazole-4-carboxamide], the half-maximal inhibitory concentration (IC50) in assay [2] was more than 2500 nM; in assay [3] it was 250 to 500 nM.

Regarding `Cc1cnc(N[C@@H]2CCOC2)nc1-n1cnc(C(=O)N[C@H](CN)c2cccc(Cl)c2)c1` [Example 264, N-((S)-2-amino-1-(3-chlorophenyl)ethyl)-1-(5-methyl-2-(((R)-tetrahydrofuran-3-yl)amino)pyrimidin-4-yl)-1H-imidazole-4-carboxamide], the IC50 in assay [2] was 100 to 250 nM; in assay [3] (phospho-RSK1(S380)), not above 100 nM.

Consider `Cc1cnc(NC2CCOCC2)nc1-n1cnc(C(=O)NC(c2cccc(Cl)c2)C(C)O)c1` (single isomer, unassigned; isomer #2) [Example 252, N-(1-(3-chlorophenyl)-2-hydroxypropyl)-1-(5-methyl-2-((tetrahydro-2H-pyran-4-yl)amino)pyrimidin-4-yl)-1H-imidazole-4-carboxamide (isomer #2)], for which the IC50 lay in the range of 250 to 500 nM in assay [2] and 100 to 250 nM in assay [3] (phospho-RSK1(S380)).

Regarding `Cc1cnc(NC2CC(F)(F)C2)nc1-n1cnc(C(=O)NC(CN)c2cc(F)cc(Cl)c2)c1` (centres unmarked) [Example 278, N-(2-amino-1-(3-chloro-5-fluorophenyl)ethyl)-1-(2-((3,3-difluorocyclobutyl)amino)-5-methylpyrimidin-4-yl)-1H-imidazole-4-carboxamide], the 50% inhibitory concentration (IC50) in assay [2] and in assay [3] (phospho-RSK1(S380)) was not above 100 nM throughout.

`Cc1cnc(NC2CCOCC2)nc1-n1cnc(C(=O)NCc2cccc(Cl)n2)c1` [Example 307, N-((6-chloropyridin-2-yl)methyl)-1-(5-methyl-2-((tetrahydro-2H-pyran-4-yl)amino)pyrimidin-4-yl)-1H-imidazole-4-carboxamide]: the IC50 in assay [1] and in assay [3] (phospho-RSK1(S380)) was 500 to 2500 nM in each case.

Turning to `O=C(Nc1cnn(-c2ccnc(Nc3ccccc3)c2)c1)N[C@H](CO)c1cccc(Cl)c1` [Example 34, (S)-1-(1-(3-chlorophenyl)-2-hydroxy-ethyl)-3-(1-(2-(phenyl-amino)pyridin-4-yl)-1H-pyrazol-4-yl)urea], the IC50 in assay [2] and in assay [3] (phospho-RSK1(S380)) was more than 2500 nM throughout.

As to `Cc1cnc(Nc2cccc(N3CCOCC3)c2)nc1-n1cnc(C(=O)N[C@H](CN)c2cccc(Cl)c2)c1` [Example 272, (S)-N-(2-amino-1-(3-chlorophenyl)ethyl)-1-(5-methyl-2-((3-morpholinophenyl)amino)pyrimidin-4-yl)-1H-imidazole-4-carboxamide], the IC50 in assay [2] lay within 100 to 250 nM; in assay [3] (phospho-RSK1(S380)) it was 250 to 500 nM.

In the case of `Cc1cnc(NC2CCOCC2)nc1-n1cnc(C(=O)NC(CO)c2cccc(C(F)(F)F)c2)c1` (centres unmarked) [Example 237, N-(2-hydroxy-1-(3-(trifluoromethyl)phenyl)ethyl)-1-(5-methyl-2-((tetrahydro-2H-pyran-4-yl)amino)pyrimidin-4-yl)-1H-imidazole-4-carboxamide], the values for the 50% inhibitory concentration (IC50) in assay [2] and in assay [3] (phospho-RSK1(S380)) were more than 2500 nM and 250 to 500 nM, respectively.

With `Cc1cnc(Nc2ccc(F)c(N3CCOCC3)c2)nc1-n1cnc(C(=O)NC(CN)c2cccc(Cl)c2)c1` (centres unmarked) [Example 256, N-(2-amino-1-(3-chlorophenyl)ethyl)-1-(2-((4-fluoro-3-morpholinophenyl)amino)-5-methylpyrimidin-4-yl)-1H-imidazole-4-carboxamide], the IC50 in assay [2] and in assay [3] (phospho-RSK1(S380)) was not above 100 nM each time.

As for `Cc1cnc(NC2CCOc3ccccc32)nc1-n1cnc(C(=O)N[C@H](CO)c2cccc(Cl)c2)c1` (stereo partly drawn) [Example 247, N-((S)-1-(3-chlorophenyl)-2-hydroxyethyl)-1-(2-(chroman-4-ylamino)-5-methylpyrimidin-4-yl)-1H-imidazole-4-carboxamide], the concentration for half-maximal inhibition (IC50) in assay [2] was more than 2500 nM; in assay [3] (phospho-RSK1(S380)), not above 100 nM.

For `Cc1cnc(NC2CC=CCC2)nc1-n1cnc(C(=O)N[C@H](CN)c2cccc(Cl)c2)c1` (stereo partly drawn) [Example 292, N-((S)-2-amino-1-(3-chlorophenyl)ethyl)-1-(2-(cyclohex-3-en-1-ylamino)-5-methylpyrimidin-4-yl)-1H-imidazole-4-carboxamide], the concentration for half-maximal inhibition (IC50) in assay [2] and in assay [3] (phospho-RSK1(S380)) was not above 100 nM in each case.

`Cc1cnc(NC2CCOCC2)nc1-n1cnc(C(=O)NC(CN)c2cccs2)c1` (centres unmarked) [Example 267, N-(2-amino-1-(thiophen-2-yl)ethyl)-1-(5-methyl-2-((tetrahydro-2H-pyran-4-yl)amino)pyrimidin-4-yl)-1H-imidazole-4-carboxamide]: the IC50 in assay [2] and in assay [3] (phospho-RSK1(S380)) was 100 to 250 nM each time.

Turning to `Cc1cnc(NC2COC2)nc1-n1cnc(C(=O)N[C@H](CN)c2cccc(Cl)c2)c1` [Example 268, (S)-N-(2-amino-1-(3-chlorophenyl)ethyl)-1-(5-methyl-2-(oxetan-3-ylamino)pyrimidin-4-yl)-1H-imidazole-4-carboxamide], the IC50 in assay [2] and in assay [3] (phospho-RSK1(S380)) was not above 100 nM throughout.

Take `Cc1cnc(NC2CCOCC2)nc1-n1cnc(C(=O)NC(CO)c2cccs2)c1` (centres unmarked) [Example 233, N-(2-hydroxy-1-(thiophen-2-yl)ethyl)-1-(5-methyl-2-((tetrahydro-2H-pyran-4-yl)amino)pyrimidin-4-yl)-1H-imidazole-4-carboxamide]: the results for the 50% inhibitory concentration (IC50) in assay [2] and in assay [3] (phospho-RSK1(S380)) were more than 2500 nM and not above 100 nM, respectively.

Consider `Cc1cnc(Nc2ccc(F)cc2)nc1-n1cnc(C(=O)N[C@H](CN)c2cccc(Cl)c2)c1` [Example 248, (S)-N-(2-amino-1-(3-chlorophenyl)ethyl)-1-(2-((4-fluorophenyl)amino)-5-methylpyrimidin-4-yl)-1H-imidazole-4-carboxamide], for which the IC50 is not above 100 nM in assay [2] and 100 to 250 nM in assay [3] (phospho-RSK1(S380)).

With `Cc1ccc(C(CO)NC(=O)c2cn(-c3nc(NC4CCOCC4)ncc3C)cn2)s1` (centres unmarked) [Example 261, N-(2-hydroxy-1-(5-methylthiophen-2-yl)ethyl)-1-(5-methyl-2-((tetrahydro-2H-pyran-4-yl)amino)pyrimidin-4-yl)-1H-imidazole-4-carboxamide], the half-inhibitory concentration (IC50) is more than 2500 nM in assay [2] and 500 to 2500 nM in assay [3] (phospho-RSK1(S380)).

Consider `Cc1cnc(N[C@H]2CCOC2)nc1-n1cnc(C(=O)NCc2cc(Cl)cc(Cl)c2)c1` [Example 313, (S)-N-(3,5-dichlorobenzyl)-1-(5-methyl-2-((tetrahydrofuran-3-yl)amino)pyrimidin-4-yl)-1H-imidazole-4-carboxamide], for which the 50% inhibitory concentration (IC50) in assay [2] was more than 2500 nM; in assay [3], 250 to 500 nM.
